Drawing on patent US7585855B2, “Bengamides with a substituted caprolactam cycle, method for the preparation thereof, compositions containing them and use thereof” (Aventis Pharma SA, priority 2004, dated 2009), this text covers IC50 for 2 compounds.

This assay has as its system Hep-G2 cells. Kind of assay: Inhibition of cell proliferation of Hep-G2 cells (intracellular ATP, CellTiterGlo). The settings on record: Homo sapiens, HepG2, 72 hours incubation, ATP content, read-out: IC 50 (μM)/HEP G2. In kind it is cell-based. As for the experimental part:
The antiproliferative activity of product 3 was determined by measuring the inhibition of cell proliferation of Hep-G2 cells. The cells are subcultured in a cell culture medium at a concentration of 1000 cells per well, and incubated for 4 hours at 37° C. and 5% CO2.
Medium used for the Hep-G2 cell culture: Dubelcco's modified Eagle's medium/Ham mixture F12 (Gibco); NEAA (10%; nonessential amino acids, Gibco); sodium pyruvate (1%, Gibco); L-glutamine (1%, Gibco); fetal calf serum (5%; PAA).
After 4 hours, the test products dissolved in a DMSO/cell culture medium mixture are added at various concentrations and the resulting mixtures are incubated for 72 hours at 37° C. and 5% CO2. The intracellular ATP content was measured using the CellTiterGlo test reagent (Promega).

For the compound `CO[C@@H](C(=O)N[C@H]1CCCCNC1=O)[C@H](O)[C@@H](O)[C@H](O)/C=C/C(C)C` [Bengamide E], the IC50 was 7 µM.
`CCC(C)/C=C/[C@@H](O)[C@H](O)[C@@H](O)[C@@H](OC)C(=O)N[C@H]1CCCCN(Cc2ccccc2)C1=O` (stereo partly drawn) [Example 3, N-[(S)-1-(4-benzyl)-2-oxoperhydroazepin-3-yl]-(E)-(2R,3R,4S,5R)-3,4,5-trihydroxy-2-methoxy-8-methyldec-6-enamide]: the IC50 stood at 0.02 µM.
